Test results published in US7947312B2, “Method of preparation and composition of a water soluble extract of the bioactive component of the plant species Uncaria for enhancing immune, anti-inflammatory, anti-tumor and DNA repair processes of warm blooded animals” (priority 2002, dated 2011).
Structures can show the parent of a compound that is named as a salt. Where two headings read alike, the source gives them in different places.

How the values were obtained:
[1] = test system: mouse spleen cells activated with Con A or LPS; assay: Proliferation of mitogen-stimulated mouse spleen cells (3[H]-thymidine incorporation); assay type: cell-based; settings: Con A 2.5 μg/ml or LPS 10 μg/ml, 48 hours
Procedure: FIG. 4A illustrates spleen cells (2×10^5) that were activated with Con A (left; 2.5 μg/ml) or LPS (right; 10 μg/ml) in the presence of indicated concentrations of C-MED-100®, QAA or QA. Proliferation was assayed after 48 hours by ^3[H]-thymidine incorporation in triplicate cultures. Results from one representative experiment out of three are presented as mean values±S.D.
(§1) Cell cultures: Raji human Burkitt's lymphoma (CCL-86), Jurkat human acute T-cell leukemia (TIB-152), 70Z/3 mouse pre-B lymphocyte cell line (TIB-158), or mouse spleen cells were used in the experiments. The cells were cultured in RPMI medium (Life Technologies) supplemented with 10% FCS, 10 mM HEPES buffer, antibiotics, 50 μM 2-mercaptoethanol and 1 mM sodium pyruvate (all supplements from Life Technologies) at 37° C., 5% CO2. The number of Raji cells in duplicate cultures were determined with a Coulter Z1 cell counter (Beckman Coulter Inc, Fullerton, Calif., USA) three times each. The number of viable and dead cells were determined using trypan blue exclusion, by counting three independent samples from duplicate cultures. […] Proliferation was detected by measuring thymidine incorporation after a 4 hours pulse with 1 μCi ^3[H]-thymidine (Amersham Pharmacia).

HL-60 W6899 cells = assay: HL-60 bioassay, microculture 5 days, clonogenicity estimated by MTT assay (Table 1); assay type: cell-based, human; settings: Homo sapiens, HL-60, parameters are approximations
Procedure: An assay of biological activity of C-MED-100®'s active ingredient is prepared as follows: HL-60 […] cells are exposed in microculture at 5000 cells per well (96-well plates) for 5 days at 37 ? C. in a CO2 incubator. After incubation, the cells are washed with saline and clonogenicity estimated by MTT assay.

Jurkat T cells = assay: Jurkat T cell death and apoptosis (Annexin V / 7AAD); assay type: cell-based, human; settings: 24 hours, concentrations inhibiting NF-κB
Procedure: FIG. 5A illustrates Jurkat T that are cells transfected with a NF-κB reporter construct were pre-cultured with various concentrations of QA or C-MED-100® for two hours. PMA (50 ng/ml) and ionomycin (1 μM) were thereafter added and the cells incubated for another six hours. The mean induction of luciferase activity in triplicate cultures from one representative experiment out of four are shown (left panel). QA induced no cell death or apoptosis in Jurkat T cells at concentrations which inhibited NF-κB activity. Jurkat T cells were incubated with various concentrations of QA for 24 hours and thereafter stained with Annexin V and 7AAD before analysis by flow cytometry. […]
as §1, with “The cells were cultured in RPMI medium (Life Technologies) supplemented with 10% FCS, 10 mM HEPES buffer, antibiotics, 50 μM 2-mercaptoethanol and 1 mM sodium pyruvate (all supplements from Life Technologies) at 37° C., 5% CO2.” left out

[2] = test system: NF-κB dependent Igκ-chain expression in 70Z/3 cells; assay: LPS-induced Igκ-chain expression in 70Z/3 cells (flow cytometry, 7AAD); assay type: cell-based
Procedure: FIG. 5B illustrates 70Z/3 cells (2×10^5) that were pretreated for 4 h with C-MED-100® or QA before activation for 20 h with LPS (25 μg/ml). The cells were thereafter stained with 7AAD and Igκ-antibodies and analyzed by flow cytometry. The results are mean Igκ-positive cells±S.D. (left panel) and mean 7AAD negative cells±S.D. (right panel) of duplicate cultures from one representative experiment out of two performed.
as §1

C57BL/6 mice = assay: Mice treated via drinking water for 21 days: spleen cells, blood cells, weights; assay type: in vivo, mouse
Procedure: Mice were treated with indicated concentrations of QA or C-MED-100® in the drinking water for 21 days, sacrificed and absolute number of spleen cells counted using trypan blue exclusion. The presented data are mean cell numbers±S.D. pooled from five experiments (water, n=21; C-MED-100® 4 mg/ml, n=24; C-MED-100® 8 mg/ml, n=9; QA 1 mg/ml, n=9; QA 2 mg/ml, n=22; QA 4 mg/ml, n=10). Statistically significant differences compared to control mice supplemented with tap water are indicated. […] The data are presented as the mean number of cells/ml±S.D. from five experiments (water, n=21; C-MED-100® 4 mg/ml, n=24; C-MED-100® 8 mg/ml, n=9; QA 1 mg/ml, n=9; QA 2 mg/ml, n=22; QA 4 mg/ml, n=10). Statistically significant differences compared to control mice supplemented with tap water are indicated. Materials and Methods: C57BL/6 females were bought from […], Denmark and used in experiments at an age of 6-10 weeks. The animals were kept in a SPF facility at Lund University, Lund, Sweden. The use of laboratory animals complies with the guidelines of the European Community and was approved of by the local ethical committee. In vivo treatment: Mice were fed with C-MED-100® and QA (Sigma-Aldrich), dissolved in autoclaved tap water at indicated concentrations, for 21 days. The drinking water bottles were changed every third day. The animals were then sacrificed, the spleens removed and blood samples collected. The blood samples were analyzed in a Sysmex KX-21N cytometer (Sysmex Corporation, Kobe, Japan).

| SMILES | proliferation of mitogen-stimulated mouse lymphocytes [1] | IC50 (HL-60 W6899 cells; after 1% aqueous ammonia, read-out: Bioassay after 1% aqueous ammonia IC50 HL-60 cells) | IC50 (HL-60 W6899 cells; read-out: Bioassay efficacy using IC50 in HL-60 cells) | cell death in Jurkat T cells (Jurkat T cells) | cell death in 70Z/3 cells (7AAD) [2] | LPS-induced Igκ-chain expression ([2]; 70Z/3 cells, 4 h pretreatment, LPS 25 μg/ml 20 h) | number of spleen cells (C57BL/6 mice; 2 mg/ml in drinking water, 21 days) | body weight (C57BL/6 mice; 4 mg/ml in drinking water) | WBC and blood lymphocytes in peripheral blood (C57BL/6 mice; 4 mg/ml in drinking water, vs normal control animals) | absolute numbers of lymphocyte subsets CD4+ T cells, CD8+ T cells and B cells in spleen (C57BL/6 mice; drinking water 21 days (FIG. 6B)) | WBC, blood lymphocytes, RBC in peripheral blood (C57BL/6 mice; drinking water 21 days, indicated concentrations) |
| --- | --- | --- | --- | --- | --- | --- | --- | --- | --- | --- | --- |
| O=C(O)[C@]1(O)C[C@@H](O)[C@@H](O)[C@H](O)C1 [QAA, quinic acid ammonium salt] | inhibited cell proliferation in a dose dependent manner | – | – | – | – | – | – | – | – | – | – |
| O=C(O)C1(O)CC(O)C(O)C(O)C1 (centres unmarked) [QA, 1,3,4,5-tetrahydroxy-cyclohexanecarboxylic acid] | – | > 3000 µg/mL | > 3000 µg/mL | did not induce cell death | without causing cell death | inhibited Igκ-chain expression to a similar extent | significantly increased number of spleen cells | significantly reduced | this increase was significant | this was also the case | increasing number of WBC and blood lymphocytes |
